Data reported in US20240417745A1, “SYSTEMS AND METHODS FOR SEEDLESS FRUIT TRAIT” (Duke University, priority 2023, published 2024).

Tested on: −2 DAA WT ovaries
Test: RNA-seq of −2 DAA WT ovaries treated with 2,4-D vs mock
Type: in vivo, Tomato (Solanum lycopersicum)
Settings: 100 μM 2,4-D, fold change >1.5, p<0.05
Experimental: Tomato plants were grown in greenhouse with 16 h day/8 h night light cycle as described previously (Hu et al.). Parthenocarpy test was done as described previously in Hu et al., with some modifications: −2 DAA flowers on mature tomato plants (2-6 weeks after first flowering) were emasculated and recorded fruit growth 5 weeks later; fruit diameter of at least 1 cm was considered as parthenocarpy. For fruit yield analysis, the number of flowers were counted for each young flower cluster of ˜two-month-old plants, and fruits developed on these clusters were harvested individually and weighed when they were at the red ripe stage. Whole plant phenotypes including plant height, internode numbers and length, and leaf morphology were recorded 5 weeks after sowing. For 2,4-D treatment, 10 μl of 100 μM 2,4-D, or mock solvent (5% MeOH, 0.1% Tween-20) was applied to −2 DAA ovaries of emasculated flowers. All statistical analyses were performed using Student's t-test.
Total RNAs were purified from −2 DAA ovaries of WT and 8a-1 8b-1, as well as −2 DAA WT ovaries treated with 100 μM 2,4-D for 2/6/24 h or mock treated (5% methanol, 0.1% Tween 20). RNA-Seq cDNA libraries (three biological repeats) were prepared with the QuantSeq 3′mRNA-Seq library prep kit FWD for Illumina (Lexogen). DNA sequencing was performed with Illumina Next-Seq500 High-Output 75 bp SR. Sequence alignment and DE (differential expression) analysis were done online at lexogen.bluebee.com. Heatmap was created in RStudio with plotly package. Co-regulated genes among 8a 8b and +2,4-D 2/6/24 h gene lists were then identified (fold change >1.5; p<0.1 for 8a 8b vs. WT; p<0.05 for +2,4-D vs. mock). Venn Diagrams were made using online tool at InteractiVenn.net^53. GO analysis was performed using agriGO v2 toolkit (Tian et al. agriGO v2.0: a GO analysis toolkit for the agricultural community, 2017 update. Nucleic Acids Res 45, W122-W129, (2017)). Heatmap analysis was made in R language with the plotly package. […]

## O=C(O)COc1ccc(Cl)cc1Cl [2,4-D]
2 h treatment vs mock
  number of auxin-responsive differentially expressed genes (DEG): 1731
6 h treatment vs mock
  number of auxin-responsive differentially expressed genes (DEG): 3262
24 h treatment vs mock
  number of auxin-responsive differentially expressed genes (DEG): 3212
